In patent US20240083861A1, “HSD17B13 INHIBITORS AND USES THEREOF” (FL2022-001, Inc., priority 2020, published 2024):

Target: T1, Recombinant human HSD17B13 enzyme (Homo sapiens, UniProt Q7Z5P4)
T1 sequence (Q7Z5P4 20-300): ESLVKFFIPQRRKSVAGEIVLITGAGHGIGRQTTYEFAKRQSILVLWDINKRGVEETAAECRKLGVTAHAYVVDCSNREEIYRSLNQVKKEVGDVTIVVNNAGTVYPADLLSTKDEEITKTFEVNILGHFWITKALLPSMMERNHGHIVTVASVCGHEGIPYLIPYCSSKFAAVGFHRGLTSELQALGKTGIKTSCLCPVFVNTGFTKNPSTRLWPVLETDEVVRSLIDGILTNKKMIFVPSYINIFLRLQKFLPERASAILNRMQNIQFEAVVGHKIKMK
Assay: HSD17b13 NAD(P)H-Glo biochemical assay
Details: 50 uM estradiol, 1 mM NAD+, NAD(P)H-Glo luminescence; read-out: HSD17β13 IC50
Summary of the method: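 Recombinant human HSD17B13 in 20 mM Tris pH7.4 with 0.002% Tween-20 and 0.02% BSA was preincubated with inhibitor for 20 minutes at RT. The reaction ran 3 hours at 37° C with 50 uM estradiol and 1 mM NAD+ (final). NADH formed was detected by NAD(P)H-Glo luminescence after 1 hour at RT.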

| SMILES | IC50 |
| --- | --- |
| O=C(c1ccc2oc(-c3cc(O)c(F)c(F)c3)nc2c1)N1CCOCC1 [Compound 1.06, (2-(3,4-Difluoro-5-hydroxyphenyl)benzo[d]oxazol-5-yl)(morpholino)methanone] | 0.1 to 1 µM |
| O=C(NC12CC(C1)C2)c1ccc2oc(-c3cc(O)c(F)c(C(F)(F)F)c3)nc2c1 [Compound 1.10, N-(Bicyclo[1.1.1]pentan-1-yl)-2-(4-fluoro-3-hydroxy-5-(trifluoromethyl)phenyl)benzo[d]oxa-zole-5-carboxamide] | < 0.1 µM |
| Cn1nc(-c2cc(C(F)(F)F)c(F)c(O)c2F)c2cc(F)c(N3CCN(S(C)(=O)=O)CC34CC4)nc21 [Compound 9.104, 2,6-Difluoro-3-(5-fluoro-1-methyl-6-(7-(methylsulfonyl)-4,7-diazaspiro[2.5]octan-4-yl)-1H-pyrazolo[3,4-b]pyridin-3-yl)-5-(trifluoromethyl)phenol] | < 0.1 µM |
| C[C@@H]1COCCN1c1cc2c(cn1)c(-c1cc(C(F)(F)F)c(F)c(O)c1F)nn2C [Compound 9.30, (R)-2,6-Difluoro-3-(1-methyl-6-(3-methylmorpholino)-1H-pyrazolo[4,3-c]pyridin-3-yl)-5-(trifluoromethyl)phenol] | < 0.1 µM |
| Cn1nc(-c2cc(C(F)(F)F)c(F)c(O)c2F)c2cnc(N3CCOC4(CCOCC4)C3)cc21 [Compound 9.82, 2,6-Difluoro-3-(1-methyl-6-(1,9-dioxa-4-azaspiro [5.5]undecan-4-yl)-1H-pyrazolo[4,3-c]pyridin-3-yl)-5-(trifluoromethyl)phenol] | < 0.1 µM |
| CN(c1ncc2c(-c3cc(C(F)(F)F)c(F)c(O)c3F)nn(C)c2c1F)C1CCOCC1 [Compound 9.136, 2,6-Difluoro-3-(7-fluoro-1-methyl-6-(methyl(tetrahydro-2H-pyran-4-yl)amino)-1H-pyrazolo[4,3-c]pyridin-3-yl)-5-(trifluoromethyl)phenol] | < 0.1 µM |
| Cn1nc(-c2cc(C(F)(F)F)cc(O)c2F)c2cnc(C3CCN(S(C)(=O)=O)CC3)cc21 [Compound 13.01, 2-Fluoro-3-(1-methyl-6-(1-(methylsulfonyl)piperidin-4-yl)-1H-pyrazolo[4,3-c]pyridin-3-yl)-5-(trifluoromethyl)phenol] | 0.1 to 1 µM |
| Cn1nc(-c2cc(C(F)(F)F)c(F)c(O)c2F)c2cnc(NC3CCC3)nc21 [Compound 9.16, 3-(6-(Cyclobutylamino)-1-methyl-1H-pyrazolo[3,4-d]pyrimidin-3-yl)-2,6-difluoro-5-(trifluoromethyl)phenol] | < 0.1 µM |
| Cn1nc(-c2cc(C(F)(F)F)c(F)c(O)c2F)c2cnc(N3CCNC4(CC4)C3=O)cc21 [Compound 9.53, 7-(3-(2,4-Difluoro-3-hydroxy-5-(trifluoromethyl)phenyl)-1-methyl-1H-pyrazolo[4,3-c]pyridin-6-yl)-4,7-diazaspiro[2.5]octan-8-one] | 0.1 to 1 µM |

More lines, now with the values ahead:

| IC50 | SMILES |
| --- | --- |
| < 0.1 µM | Cn1nc(-c2cc(C(F)(F)F)c(F)c(O)c2F)c2cnc(N(Cc3ccccc3)C3CCC3)nc21 [Compound 18.124, 3-(6-(Benzyl(cyclobutyl)amino)-1-methyl-1H-pyrazolo[3,4-d]pyrimidin-3-y1)-2,6-difluoro-5-(trifluoromethyl)phenol] |
| 0.1 to 1 µM | Cn1nc(-c2cc(C(F)(F)F)c(F)c(O)c2F)c2cnc(N3CCN(C(=O)CN4CCOCC4)CC3)nc21 [Compound 18.126, 1-(4-(3-(2,4-Difluoro-3-hydroxy-5-(trifluoromethyl)phenyl)-1-methyl-1H-pyrazolo[3,4-d]pyrimidin-6-y1)piperazin-1-yl)-2-morpholinoethan-1-one] |
| < 0.1 µM | Cn1nc(-c2cc(C(F)(F)F)c(F)c(O)c2F)c2cnc(N3CCN(C(=O)c4ccccc4)CC3)nc21 [Compound 18.114, (4-(3-(2,4-Difluoro-3-hydroxy-5-(trifluoromethyl)phenyl)-1-methyl-1H-pyrazolo[3,4-d]pyrimidin-6-y1)piperazin-1-yl)(phenyl)methanone] |
| < 0.1 µM | CCC1(O)CCN(c2ncc3c(-c4cc(C(F)(F)F)c(F)c(O)c4F)nn(C)c3n2)CC1 [Compound 18.66, 1-(3-(2,4-Difluoro-3-hydroxy-5-(trifluoromethyl)phenyl)-1-methyl-1H-pyrazolo[3,4-d]pyrimidin-6-yl)-4-ethylpiperidin-4-ol] |
| < 0.1 µM | Cn1nc(-c2cc(C(F)(F)F)c(F)c(O)c2F)c2cnc(N3CCN(S(C)(=O)=O)C(C#N)C3)nc21 (stereo not shown) [Compound 18.118, 4-(3-(2,4-Difluoro-3-hydroxy-5-(trifluoromethyl)phenyl)-1-methyl-1H-pyrazolo[3,4-d]pyrimidin-6-yl)-1-(methylsulfonyl)piperazine-2-carbonitrile] |
| < 0.1 µM | Cn1nc(-c2cc(C(F)(F)F)c(F)c(O)c2F)c2cnc(N3CCC4(CCNC4=O)CC3)nc21 [Compound 18.10, 8-(3-(2,4-Difluoro-3-hydroxy-5-(trifluoromethyl)phenyl)-1-methyl-1H-pyrazolo[3,4-d]pyrimidin-6-yl)-2,8-diazaspiro[4.5]decan-1-one] |
| < 0.1 µM | Cn1nc(-c2cc(C(F)(F)F)c(F)c(O)c2F)c2cnc(N3CCOCC3)nc21 [Compound 18.132, 2,6-Difluoro-3-(1-methyl-6-morpholino-1H-pyrazolo[3,4-d]pyrimidin-3-y1)-5-(trifluoromethyl)phenol] |
| 0.1 to 1 µM | CN(C)C1CCCN(c2ncc3c(-c4cc(C(F)(F)F)c(F)c(O)c4F)nn(C)c3n2)C1 (stereo not shown) [Compound 18.45, 3-(6-(3-(Dimethylamino)piperidin-1-y1)-1-methyl-1H-pyrazolo[3,4-d]pyrimidin-3-y1)-2,6-difluoro-5-(trifluoromethyl)phenol] |
| < 0.1 µM | Cn1nc(-c2cc(C(F)(F)F)c(F)c(O)c2F)c2cnc(N3CCN(C4CC4)C(=O)C3)nc21 [Compound 18.21, 1-Cyclopropyl-4-(3-(2,4-difluoro-3-hydroxy-5-(trifluoromethyl)phenyl)-1-methyl-1H-pyrazolo[3,4-d]pyrimidin-6-y1)piperazin-2-one] |
| 0.1 to 1 µM | Cn1nc(-c2cc(C(F)(F)F)c(F)c(O)c2F)c2cnc(N3CCC(N4CCOCC4)CC3)nc21 [Compound 18.60, 2,6-Difluoro-3-(1-methyl-6-(4-morpholinopiperidin-1-yl)-1H-pyrazolo[3,4-d]pyrimidin-3-y1)-5-(trifluoromethyl)phenol] |
| < 0.1 µM | Cn1nc(-c2cc(C(F)(F)F)c(F)c(O)c2F)c2cnc(N3CCN(S(C)(=O)=O)C(C)(C)C3)nc21 [Compound 18.64, 3-(6-(3,3-Dimethyl-4-(methylsulfonyl)piperazin-1-y1)-1-methyl-1H-pyrazolo[3,4-d]pyrimidin-3-y1)-2,6-difluoro-5-(trifluoromethyl)phenol] |
| < 0.1 µM | Cn1nc(-c2cc(C(F)(F)F)c(F)c(O)c2F)c2cnc(N3CCOC4(CCCC4)C3)nc21 [Compound 18.106, 2,6-Difluoro-3-(1-methyl-6-(6-oxa-9-azaspiro[4.5]decan-9-yl)-1H-pyrazolo[3,4-d]pyrimidin-3-y1)-5-(trifluoromethyl)phenol] |
| < 0.1 µM | Cn1nc(-c2cc(C(F)(F)F)c(F)c(O)c2F)c2cnc(C3CCN(S(C)(=O)=O)CC3)nc21 [Compound 15.04, 2,6-Difluoro-3-(1-methyl-6-(1-(methylsulfony1)piperidin-4-y1)-1H-pyrazolo[3,4-d]pyrimidin-3-yl)-5-(trifluoromethyl)phenol] |
